Results as given in patent publication US7393848B2, “Certain heterocyclic substituted imidazo[1,2-A]pyrazin-8-ylamines and methods of inhibition of Bruton's tyrosine kinase by such compounds” (CGI Pharmaceuticals, Inc., priority 2003, dated 2008).

Target: T1, full length human wildtype Btk (Homo sapiens, UniProt Q06187)
T1 construct: V5 (C); 6xHis (C); made in house; host or cells: Sf9 insect cells (baculovirus, pFastBac / Bac-to-Bac)
Test: Biochemical Btk Assay (time-resolved fluorescence kinase assay)
Details: 40 μM ATP, 1 hour at room temperature; read-out: IC50 value in the Btk biochemical assay of Example 7
Protocol: A generalized procedure for one standard biochemical Btk Kinase Assay used to test compounds disclosed in this application is as follows.
A master mix minus Btk enzyme is prepared containing 1× Cell Signaling kinase buffer (25 mM Tris-HCl, pH 7.5, 5 mM […]-glycerophosphate, 2 mM dithiothreitol, 0.1 mM Na3VO4, 10 mM MgCl2), 0.5 μM Promega PTK Biotinylated peptide substrate 2, and 0.01% BSA. A master mix plus Btk enzyme is prepared containing 1× Cell Signaling kinase buffer, 0.5 μM PTK Biotinylated peptide substrate 2, 0.01% BSA, and 100 ng/well (0.06 mU/well) Btk enzyme. Btk enzyme is prepared as follows: full length human wildtype Btk (accession number NM-000061) with a C-terminal V5 and 6× His tag was subcloned into pFastBac vector for making baculovirus carrying this epitope-tagged Btk. […] A quantity of 1.25 μL of compounds in 5% DMSO is transferred to a 96-well ½ area Costar polystyrene plate. […] A quantity of 18.75 μL of master mix minus enzyme (as a negative control) and master mix plus enzyme is transferred to appropriate wells in 96-well ½ area costar polystyrene plate. […] The plate is read using time-resolved fluorescence with a Perkin Elmer Envision using excitation filter 330 nm, emission filter 665 nm, and 2nd emission filter 615 nm. IC50 values are subsequently calculated.

T1 sequence (Q06187 whole entry): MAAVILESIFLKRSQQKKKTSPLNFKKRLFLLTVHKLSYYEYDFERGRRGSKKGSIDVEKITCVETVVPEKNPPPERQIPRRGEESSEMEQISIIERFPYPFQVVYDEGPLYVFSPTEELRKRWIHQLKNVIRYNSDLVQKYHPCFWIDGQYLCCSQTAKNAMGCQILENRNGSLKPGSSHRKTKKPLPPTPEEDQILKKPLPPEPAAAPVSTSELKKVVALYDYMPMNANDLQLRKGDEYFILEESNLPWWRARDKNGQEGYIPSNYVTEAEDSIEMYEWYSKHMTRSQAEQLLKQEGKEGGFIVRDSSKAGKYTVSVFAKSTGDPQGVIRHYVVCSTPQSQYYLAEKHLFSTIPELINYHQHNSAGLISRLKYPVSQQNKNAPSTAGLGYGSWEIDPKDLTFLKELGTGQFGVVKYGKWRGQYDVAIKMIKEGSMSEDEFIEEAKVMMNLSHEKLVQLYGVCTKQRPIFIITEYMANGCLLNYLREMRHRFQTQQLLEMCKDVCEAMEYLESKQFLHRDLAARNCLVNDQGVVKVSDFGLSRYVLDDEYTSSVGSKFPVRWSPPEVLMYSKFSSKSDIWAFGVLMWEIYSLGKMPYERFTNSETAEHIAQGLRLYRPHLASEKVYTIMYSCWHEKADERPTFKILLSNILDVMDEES

CC(C)(C)c1ccc(C(=O)Nc2cccc(-c3cn4ccnc4c(Nc4ccc5[nH]ncc5c4)n3)c2)cc1 [Example 6]
IC50: < 1000 nM
